Data as given in patent US12723063B2, “GIPR-agonist compounds” (Eli Lilly and Company, priority 2019, dated 2026).
*1 amine or outer side, *2 acyl side, *3 side chain or, on linkers, in order; H or OH if unused. Where a SMILES comes first, the peptide text is derived from it. Side-chain parts run from the residue outwards. [ ]: non-standard residue; d: D form. The star is where a group is joined. C20 diacid = O=C(O)CCCCCCCCCCCCCCCCCCC(=O)*; αMePhe(2-F) = C[C@](N)(Cc1ccccc1F)C(=O)O; γGlu = O=C(O)[C@H](CCC(=O)[*:2])N[*:1]; 4Pal = N[C@@H](Cc1ccncc1)C(=O)O; αMeL = CC(C)C[C@](C)(N)C(=O)O; Iva = CC[C@](C)(N)C(=O)O; AEEA = NCCOCCOCC(=O)O; Aib = CC(C)(N)C(=O)O

Target: T1, human GcgR (Homo sapiens, UniProt P47871)
T1 construct: expressed in transfected cells; crude membranes
T1 sequence (P47871 26-477): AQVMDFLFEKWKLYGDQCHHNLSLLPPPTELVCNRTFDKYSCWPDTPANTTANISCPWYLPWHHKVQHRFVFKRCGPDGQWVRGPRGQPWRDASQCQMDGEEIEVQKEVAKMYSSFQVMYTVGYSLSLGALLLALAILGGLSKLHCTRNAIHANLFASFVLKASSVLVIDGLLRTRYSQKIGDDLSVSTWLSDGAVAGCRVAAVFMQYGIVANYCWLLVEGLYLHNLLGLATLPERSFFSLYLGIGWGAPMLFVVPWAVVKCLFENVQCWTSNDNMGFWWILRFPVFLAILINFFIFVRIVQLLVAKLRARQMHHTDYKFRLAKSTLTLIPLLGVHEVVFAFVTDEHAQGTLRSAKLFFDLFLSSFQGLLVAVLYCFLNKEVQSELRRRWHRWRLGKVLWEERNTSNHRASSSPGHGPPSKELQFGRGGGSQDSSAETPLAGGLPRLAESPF
Experiment: [125I]-Glucagon binding, SPA with WGA beads, 0.1% bacitracin
Settings: geometric mean, read-out: hGcgR Ki
Summary of the method: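 SPA competition binding with WGA beads on crude membranes from HEK293 cells stably expressing hGcgR. Buffer: 25 mM HEPES pH 7.4, 2.5 mM CaCl2, 1 mM MgCl2, 0.1% bacitracin, 0.003% Tween-20; 10-point 3-fold dilutions, NSB with 1 μM Gcg.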

Q: Which Ki does the source give for `CC[C@H](C)[C@H](NC(=O)[C@H](CO)NC(=O)[C@H](Cc1ccc(O)cc1)NC(=O)[C@H](CC(=O)O)NC(=O)[C@H](CO)NC(=O)[C@@H](NC(=O)[C@](C)(Cc1ccccc1F)NC(=O)[C@@H](NC(=O)CNC(=O)[C@H](CCC(=O)O)NC(=O)C(C)(C)NC(=O)[C@@H](N)Cc1ccc(O)cc1)[C@@H](C)O)[C@@H](C)CC)C(=O)N[C@@](C)(CC(C)C)C(=O)N[C@@H](CC(C)C)C(=O)N[C@@H](CC(=O)O)C(=O)N[C@@H](CCCCN)C(=O)N[C@@H](CCCCNC(=O)COCCOCCNC(=O)COCCOCCNC(=O)CC[C@H](NC(=O)CCCCCCCCCCCCCCCCCCC(=O)O)C(=O)O)C(=O)N[C@@H](Cc1c[nH]cn1)C(=O)N[C@@H](CCC(N)=O)C(=O)NC(C)(C)C(=O)N[C@@H](CC(=O)O)C(=O)N[C@@H](Cc1ccccc1)C(=O)N[C@H](C(=O)N[C@@H](CCC(=O)O)C(=O)N[C@@H](Cc1ccncc1)C(=O)N[C@@H](CC(C)C)C(=O)N[C@@H](CC(C)C)C(=O)N[C@@H](C)C(=O)NCC(=O)NCC(=O)N1CCC[C@H]1C(=O)N[C@@H](CO)C(=O)N[C@@H](CO)C(=O)NCC(=O)N[C@@H](C)C(=O)N1CCC[C@H]1C(=O)N1CCC[C@H]1C(=O)N1CCC[C@H]1C(=O)N[C@@H](CO)C(N)=O)C(C)C` [Example 51] (H-Y[Aib]EGT[αMePhe(2-F)]ISDYSI[αMeL]LDKK([AEEA-AEEA-γGlu-C20 diacid])HQ[Aib]DFVE[4Pal]LLAGGPSSGAPPPS-NH2) here?
A: Its Ki is 0.0267 µM.

Q: With `CC[C@H](C)[C@H](NC(=O)[C@H](Cc1ccccc1)NC(=O)[C@@H](NC(=O)CNC(=O)[C@H](CCC(=O)O)NC(=O)C(C)(C)NC(=O)[C@@H](N)Cc1ccc(O)cc1)[C@@H](C)O)C(=O)N[C@@H](CO)C(=O)N[C@@H](CC(=O)O)C(=O)N[C@@H](Cc1ccc(O)cc1)C(=O)N[C@@H](CO)C(=O)N[C@H](C(=O)N[C@@](C)(CC(C)C)C(=O)N[C@@H](CC(C)C)C(=O)N[C@@H](CC(=O)O)C(=O)N[C@@H](CCCCN)C(=O)N[C@@H](CCCCNC(=O)COCCOCCNC(=O)COCCOCCNC(=O)CC[C@H](NC(=O)CCCCCCCCCCCCCCCCCCC(=O)O)C(=O)O)C(=O)N[C@@H](Cc1c[nH]cn1)C(=O)N[C@@H](CCC(N)=O)C(=O)NC(C)(C)C(=O)N[C@@H](CCC(=O)O)C(=O)N[C@@H](Cc1ccccc1)C(=O)N[C@H](C(=O)N[C@@H](CCC(=O)O)C(=O)N[C@@H](Cc1ccncc1)C(=O)N[C@@H](CC(C)C)C(=O)N[C@@H](CC(C)C)C(=O)N[C@@H](C)C(=O)NCC(=O)NCC(=O)N1CCC[C@H]1C(=O)N[C@@H](CO)C(=O)N[C@@H](CO)C(=O)NCC(=O)N[C@@H](C)C(=O)N1CCC[C@H]1C(=O)N1CCC[C@H]1C(=O)N1CCC[C@H]1C(=O)N[C@@H](CO)C(N)=O)C(C)C)[C@@H](C)CC` [Example 52] as the compound, how does the Ki read?
A: Its Ki is 0.114 µM.

Q: With `CC[C@H](C)[C@H](NC(=O)[C@H](Cc1ccccc1)NC(=O)[C@@H](NC(=O)CNC(=O)[C@H](CCC(=O)O)NC(=O)C(C)(C)NC(=O)[C@@H](N)Cc1ccc(O)cc1)[C@@H](C)O)C(=O)N[C@@H](CO)C(=O)N[C@@H](CC(=O)O)C(=O)N[C@@H](Cc1ccc(O)cc1)C(=O)N[C@@H](CO)C(=O)N[C@H](C(=O)N[C@@](C)(CC(C)C)C(=O)N[C@@H](CC(C)C)C(=O)N[C@@H](CC(=O)O)C(=O)N[C@@H](CCCCN)C(=O)N[C@@H](CCCCNC(=O)COCCOCCNC(=O)COCCOCCNC(=O)CC[C@H](NC(=O)CCCCCCCCCCCCCCCCCCC(=O)O)C(=O)O)C(=O)N[C@@H](Cc1c[nH]cn1)C(=O)N[C@@H](CCC(N)=O)C(=O)NC(C)(C)C(=O)N[C@@H](CC(=O)O)C(=O)N[C@@H](Cc1ccccc1)C(=O)N[C@H](C(=O)N[C@@H](CCC(=O)O)C(=O)N[C@@H](Cc1ccc(O)cc1)C(=O)N[C@@H](CC(C)C)C(=O)N[C@@H](CC(C)C)C(=O)N[C@@H](C)C(=O)NCC(=O)NCC(=O)N1CCC[C@H]1C(=O)N[C@@H](CO)C(=O)N[C@@H](CO)C(=O)NCC(=O)N[C@@H](C)C(=O)N1CCC[C@H]1C(=O)N1CCC[C@H]1C(=O)N1CCC[C@H]1C(=O)N[C@@H](CO)C(N)=O)C(C)C)[C@@H](C)CC` [Example 53] (H-Y[Aib]EGTFISDYSI[αMeL]LDKK([AEEA-AEEA-γGlu-C20 diacid])HQ[Aib]DFVEYLLAGGPSSGAPPPS-NH2) as the compound, how does the Ki read?
A: The Ki was 0.152 µM.

Q: With `CC[C@H](C)[C@H](NC(=O)[C@H](Cc1ccccc1)NC(=O)[C@@H](NC(=O)CNC(=O)[C@H](CCC(=O)O)NC(=O)C(C)(C)NC(=O)[C@@H](N)Cc1ccc(O)cc1)[C@@H](C)O)C(=O)N[C@@H](CO)C(=O)N[C@@H](CC(=O)O)C(=O)N[C@@H](Cc1ccc(O)cc1)C(=O)N[C@@H](CO)C(=O)N[C@H](C(=O)N[C@@](C)(CC(C)C)C(=O)N[C@@H](CC(C)C)C(=O)N[C@@H](CC(=O)O)C(=O)N[C@@H](CCCCN)C(=O)N[C@@H](CCCCNC(=O)COCCOCCNC(=O)COCCOCCNC(=O)CC[C@H](NC(=O)CCCCCCCCCCCCCCCCCCC(=O)O)C(=O)O)C(=O)N[C@@H](Cc1c[nH]cn1)C(=O)N[C@@H](CCC(N)=O)C(=O)NC(C)(C)C(=O)N[C@@H](CC(=O)O)C(=O)N[C@@H](Cc1ccccc1)C(=O)N[C@H](C(=O)N[C@@H](CCC(=O)O)C(=O)N[C@@H](Cc1c[nH]c2ccccc12)C(=O)N[C@@H](CC(C)C)C(=O)N[C@@H](CC(C)C)C(=O)N[C@@H](C)C(=O)NCC(=O)NCC(=O)N1CCC[C@H]1C(=O)N[C@@H](CO)C(=O)N[C@@H](CO)C(=O)NCC(=O)N[C@@H](C)C(=O)N1CCC[C@H]1C(=O)N1CCC[C@H]1C(=O)N1CCC[C@H]1C(=O)N[C@@H](CO)C(N)=O)C(C)C)[C@@H](C)CC` [Example 54] (H-Y[Aib]EGTFISDYSI[αMeL]LDKK([AEEA-AEEA-γGlu-C20 diacid])HQ[Aib]DFVEWLLAGGPSSGAPPPS-NH2) as the compound, how does the Ki read?
A: Its Ki is 0.386 µM.

Q: With `CC[C@H](C)[C@H](NC(=O)[C@H](CO)NC(=O)[C@H](Cc1ccc(O)cc1)NC(=O)[C@H](CC(=O)O)NC(=O)[C@H](CO)NC(=O)[C@@H](NC(=O)[C@](C)(CC)NC(=O)[C@@H](NC(=O)CNC(=O)[C@H](CCC(=O)O)NC(=O)C(C)(C)NC(=O)[C@@H](N)Cc1ccc(O)cc1)[C@@H](C)O)[C@@H](C)CC)C(=O)N[C@@](C)(CC(C)C)C(=O)N[C@@H](CC(C)C)C(=O)N[C@@H](CC(=O)O)C(=O)N[C@@H](CCCCN)C(=O)N[C@@H](CCCCNC(=O)COCCOCCNC(=O)COCCOCCNC(=O)CC[C@H](NC(=O)CCCCCCCCCCCCCCCCCCC(=O)O)C(=O)O)C(=O)N[C@@H](Cc1c[nH]cn1)C(=O)N[C@@H](CCC(N)=O)C(=O)NC(C)(C)C(=O)N[C@@H](CC(=O)O)C(=O)N[C@@H](Cc1ccccc1)C(=O)N[C@H](C(=O)N[C@@H](CCC(=O)O)C(=O)N[C@@H](Cc1ccncc1)C(=O)N[C@@H](CC(C)C)C(=O)N[C@@H](CC(C)C)C(=O)N[C@@H](C)C(=O)NCC(=O)NCC(=O)N1CCC[C@H]1C(=O)N[C@@H](CO)C(=O)N[C@@H](CO)C(=O)NCC(=O)N[C@@H](C)C(=O)N1CCC[C@H]1C(=O)N1CCC[C@H]1C(=O)N1CCC[C@H]1C(=O)N[C@@H](CO)C(N)=O)C(C)C` [Example 55] (H-Y[Aib]EGT[Iva]ISDYSI[αMeL]LDKK([AEEA-AEEA-γGlu-C20 diacid])HQ[Aib]DFVE[4Pal]LLAGGPSSGAPPPS-NH2) as the compound, how does the Ki read?
A: The Ki was > 0.96 µM.

Q: Which Ki does the source give for `CC[C@H](C)[C@H](NC(=O)[C@H](Cc1ccccc1)NC(=O)[C@@H](NC(=O)CNC(=O)[C@H](CCC(=O)O)NC(=O)C(C)(C)NC(=O)[C@@H](N)Cc1ccc(O)cc1)[C@@H](C)O)C(=O)N[C@@H](CO)C(=O)N[C@@H](CC(=O)O)C(=O)N[C@@H](Cc1ccc(O)cc1)C(=O)N[C@@H](CO)C(=O)N[C@H](C(=O)N[C@@](C)(CC(C)C)C(=O)N[C@@H](CC(C)C)C(=O)N[C@@H](CC(=O)O)C(=O)N[C@@H](CCCCN)C(=O)N[C@@H](CCCCNC(=O)COCCOCCNC(=O)COCCOCCNC(=O)CC[C@H](NC(=O)CCCCCCCCCCCCCCCCCCC(=O)O)C(=O)O)C(=O)N[C@@H](Cc1c[nH]cn1)C(=O)N[C@@H](CCC(N)=O)C(=O)NC(C)(C)C(=O)N[C@@H](CC(=O)O)C(=O)N[C@@](C)(Cc1ccccc1)C(=O)N[C@H](C(=O)N[C@@H](CCC(=O)O)C(=O)N[C@@H](Cc1ccncc1)C(=O)N[C@@H](CC(C)C)C(=O)N[C@@H](CC(C)C)C(=O)N[C@@H](C)C(=O)NCC(=O)NCC(=O)N1CCC[C@H]1C(=O)N[C@@H](CO)C(=O)N[C@@H](CO)C(=O)NCC(=O)N[C@@H](C)C(=O)N1CCC[C@H]1C(=O)N1CCC[C@H]1C(=O)N1CCC[C@H]1C(=O)N[C@@H](CO)C(N)=O)C(C)C)[C@@H](C)CC` [Example 56] here?
A: The Ki was 0.193 µM.

Q: How did the Ki turn out when `CC[C@H](C)[C@H](NC(=O)[C@H](Cc1ccccc1)NC(=O)[C@@H](NC(=O)CNC(=O)[C@H](CCC(=O)O)NC(=O)C(C)(C)NC(=O)[C@@H](N)Cc1ccc(O)cc1)[C@@H](C)O)C(=O)N[C@@H](CO)C(=O)N[C@@H](CC(=O)O)C(=O)N[C@@H](Cc1ccc(O)cc1)C(=O)N[C@@H](CO)C(=O)N[C@H](C(=O)N[C@@](C)(CC(C)C)C(=O)N[C@@H](CC(C)C)C(=O)N[C@@H](CC(=O)O)C(=O)N[C@@H](CCCCN)C(=O)N[C@@H](CCCCNC(=O)COCCOCCNC(=O)COCCOCCNC(=O)CC[C@H](NC(=O)CCCCCCCCCCCCCCCCCCC(=O)O)C(=O)O)C(=O)N[C@@H](Cc1c[nH]cn1)C(=O)N[C@@H](CCC(N)=O)C(=O)NC(C)(C)C(=O)N[C@@H](CCC(=O)O)C(=O)N[C@@H](Cc1ccccc1)C(=O)N[C@H](C(=O)N[C@@H](CCC(=O)O)C(=O)N[C@@H](Cc1ccncc1)C(=O)N[C@@H](CC(C)C)C(=O)N[C@@H](CC(C)C)C(=O)N[C@@H](C)C(=O)N[C@@H](CCC(N)=O)C(=O)NCC(=O)N1CCC[C@H]1C(=O)N[C@@H](CO)C(=O)N[C@@H](CO)C(=O)NCC(=O)N[C@@H](C)C(=O)N1CCC[C@H]1C(=O)N1CCC[C@H]1C(=O)N1CCC[C@H]1C(=O)N[C@@H](CO)C(N)=O)C(C)C)[C@@H](C)CC` [Example 57] (H-Y[Aib]EGTFISDYSI[αMeL]LDKK([AEEA-AEEA-γGlu-C20 diacid])HQ[Aib]EFVE[4Pal]LLAQGPSSGAPPPS-NH2) was run?
A: Its Ki is 0.422 µM.
